Consider four compounds from the supplement of paper PMC10307832.

The structures appear in SMILES notation.

The first assay concerns NCI-H1734. Briefly: relative viability (nuclei count vs DMSO), 5 days (fraction); higher = more cells survive. The settings on record: first compound 6.325 µM. In short, it runs like this:
(§1)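 Medians of duplicate plates are given as relative viability. That measure is the nuclei count in treated wells divided by the count in vehicle wells. Counts were taken on 4× images of lung cancer cell lines in 1536-well plates, 5 days after pin-tool dosing the day after seeding with one drug alone or a fixed anchor-drug dose plus five library-drug doses (not always all listed) in √10 steps.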
Turning to `COCC1(CO)C(=O)C2CCN1CC2` (stereo unspecified) [PRIMA-1MET] + Cc1cc(Nc2cc(N3CCN(C)CC3)nc(Sc3ccc(NC(=O)C4CC4)cc3)n2)n[nH]1 [Tozasertib] (partner 0.1 µM), the relative viability was determined as 0.181.
For `COCC1(CO)C(=O)C2CCN1CC2` (stereo unspecified) [PRIMA-1MET] + COc1cccc2cc(-c3nc([C@H]4CC[C@H](C(=O)O)CC4)n4ncnc(N)c34)[nH]c12 [OSI-027] (partner 0.5 µM), the relative viability was 0.532.

Staying with this assay, now noted: first compound 20 µM.
Compound `COCC1(CO)C(=O)C2CCN1CC2` (stereo unspecified) [PRIMA-1MET] + CS(=O)(=O)CCNCc1ccc(-c2ccc3ncnc(Nc4ccc(OCc5cccc(F)c5)c(Cl)c4)c3c2)o1 [Lapatinib] (partner 2 µM) registered a relative viability of 0.591.
Still for that read-out and setting: in the case of `COCC1(CO)C(=O)C2CCN1CC2` (stereo unspecified) [PRIMA-1MET] + O=C(CCCCCCC(=O)Nc1ccccc1)NO [Vorinostat] (partner 1 µM) it was 0.0676; in that of `COCC1(CO)C(=O)C2CCN1CC2` (stereo unspecified) [PRIMA-1MET] + Cc1cc(Nc2cc(N3CCN(C)CC3)nc(Sc3ccc(NC(=O)C4CC4)cc3)n2)n[nH]1 [Tozasertib] (partner 0.1 µM), 0.0526.
The same measure, in the same setting: in the case of `COCC1(CO)C(=O)C2CCN1CC2` (stereo unspecified) [PRIMA-1MET] + COc1cccc2cc(-c3nc([C@H]4CC[C@H](C(=O)O)CC4)n4ncnc(N)c34)[nH]c12 [OSI-027] (partner 0.5 µM) it was 0.0554.

The next assay concerns NCI-H2023. Described as above. The settings on record: first compound 0.2 µM. The gist of the method:
as §1
With `COCC1(CO)C(=O)C2CCN1CC2` (stereo unspecified) [PRIMA-1MET] + CS(=O)(=O)CCNCc1ccc(-c2ccc3ncnc(Nc4ccc(OCc5cccc(F)c5)c(Cl)c4)c3c2)o1 [Lapatinib] (partner 2 µM), the relative viability stood at 0.991.
Still for that read-out and setting: then `COCC1(CO)C(=O)C2CCN1CC2` (stereo unspecified) [PRIMA-1MET] + O=C(CCCCCCC(=O)Nc1ccccc1)NO [Vorinostat] (partner 1 µM), with 1.06.
For `COCC1(CO)C(=O)C2CCN1CC2` (stereo unspecified) [PRIMA-1MET] + Cc1cc(Nc2cc(N3CCN(C)CC3)nc(Sc3ccc(NC(=O)C4CC4)cc3)n2)n[nH]1 [Tozasertib] (partner 0.1 µM), the relative viability turned out to be 0.461.
Take `COCC1(CO)C(=O)C2CCN1CC2` (stereo unspecified) [PRIMA-1MET] + COc1cccc2cc(-c3nc([C@H]4CC[C@H](C(=O)O)CC4)n4ncnc(N)c34)[nH]c12 [OSI-027] (partner 0.5 µM): the relative viability turned out to be 0.453.

The same assay, now with this note: first compound 0.6325 µM.
In the case of `COCC1(CO)C(=O)C2CCN1CC2` (stereo unspecified) [PRIMA-1MET] + CS(=O)(=O)CCNCc1ccc(-c2ccc3ncnc(Nc4ccc(OCc5cccc(F)c5)c(Cl)c4)c3c2)o1 [Lapatinib] (partner 2 µM), the relative viability was found to be 0.26.
Same read-out and setting: in the case of `COCC1(CO)C(=O)C2CCN1CC2` (stereo unspecified) [PRIMA-1MET] + O=C(CCCCCCC(=O)Nc1ccccc1)NO [Vorinostat] (partner 1 µM) it was 0.474.
The same measure, in the same setting: in the case of `COCC1(CO)C(=O)C2CCN1CC2` (stereo unspecified) [PRIMA-1MET] + Cc1cc(Nc2cc(N3CCN(C)CC3)nc(Sc3ccc(NC(=O)C4CC4)cc3)n2)n[nH]1 [Tozasertib] (partner 0.1 µM) it was 0.327.
On the same count and under the same terms, then `COCC1(CO)C(=O)C2CCN1CC2` (stereo unspecified) [PRIMA-1MET] + COc1cccc2cc(-c3nc([C@H]4CC[C@H](C(=O)O)CC4)n4ncnc(N)c34)[nH]c12 [OSI-027] (partner 0.5 µM), with 0.366.

The same assay, now with this note: first compound 2 µM.
The compound `COCC1(CO)C(=O)C2CCN1CC2` (stereo unspecified) [PRIMA-1MET] + CS(=O)(=O)CCNCc1ccc(-c2ccc3ncnc(Nc4ccc(OCc5cccc(F)c5)c(Cl)c4)c3c2)o1 [Lapatinib] (partner 2 µM) yielded a relative viability of 0.639.
Still for that read-out and setting: in the case of `COCC1(CO)C(=O)C2CCN1CC2` (stereo unspecified) [PRIMA-1MET] + O=C(CCCCCCC(=O)Nc1ccccc1)NO [Vorinostat] (partner 1 µM) it was 0.442; in that of `COCC1(CO)C(=O)C2CCN1CC2` (stereo unspecified) [PRIMA-1MET] + Cc1cc(Nc2cc(N3CCN(C)CC3)nc(Sc3ccc(NC(=O)C4CC4)cc3)n2)n[nH]1 [Tozasertib] (partner 0.1 µM), 0.389.
The same measure, in the same setting: in the case of `COCC1(CO)C(=O)C2CCN1CC2` (stereo unspecified) [PRIMA-1MET] + COc1cccc2cc(-c3nc([C@H]4CC[C@H](C(=O)O)CC4)n4ncnc(N)c34)[nH]c12 [OSI-027] (partner 0.5 µM) it was 0.363.

Staying with this assay, now noted: first compound 6.325 µM.
`COCC1(CO)C(=O)C2CCN1CC2` (stereo unspecified) [PRIMA-1MET] + CS(=O)(=O)CCNCc1ccc(-c2ccc3ncnc(Nc4ccc(OCc5cccc(F)c5)c(Cl)c4)c3c2)o1 [Lapatinib] (partner 2 µM) registered a relative viability of 0.893.
In the case of `COCC1(CO)C(=O)C2CCN1CC2` (stereo unspecified) [PRIMA-1MET] + O=C(CCCCCCC(=O)Nc1ccccc1)NO [Vorinostat] (partner 1 µM), the relative viability was determined as 0.734.
On the same count and under the same terms, then `COCC1(CO)C(=O)C2CCN1CC2` (stereo unspecified) [PRIMA-1MET] + Cc1cc(Nc2cc(N3CCN(C)CC3)nc(Sc3ccc(NC(=O)C4CC4)cc3)n2)n[nH]1 [Tozasertib] (partner 0.1 µM), with 0.359; and `COCC1(CO)C(=O)C2CCN1CC2` (stereo unspecified) [PRIMA-1MET] + COc1cccc2cc(-c3nc([C@H]4CC[C@H](C(=O)O)CC4)n4ncnc(N)c34)[nH]c12 [OSI-027] (partner 0.5 µM), with 0.4.

Still in this assay, the particulars now being: first compound 20 µM.
`COCC1(CO)C(=O)C2CCN1CC2` (stereo unspecified) [PRIMA-1MET] + CS(=O)(=O)CCNCc1ccc(-c2ccc3ncnc(Nc4ccc(OCc5cccc(F)c5)c(Cl)c4)c3c2)o1 [Lapatinib] (partner 2 µM): the relative viability stood at 0.841.
As for `COCC1(CO)C(=O)C2CCN1CC2` (stereo unspecified) [PRIMA-1MET] + O=C(CCCCCCC(=O)Nc1ccccc1)NO [Vorinostat] (partner 1 µM), the relative viability was found to be 0.254.
`COCC1(CO)C(=O)C2CCN1CC2` (stereo unspecified) [PRIMA-1MET] + Cc1cc(Nc2cc(N3CCN(C)CC3)nc(Sc3ccc(NC(=O)C4CC4)cc3)n2)n[nH]1 [Tozasertib] (partner 0.1 µM): the relative viability was determined as 0.35.
The compound `COCC1(CO)C(=O)C2CCN1CC2` (stereo unspecified) [PRIMA-1MET] + COc1cccc2cc(-c3nc([C@H]4CC[C@H](C(=O)O)CC4)n4ncnc(N)c34)[nH]c12 [OSI-027] (partner 0.5 µM) registered a relative viability of 0.241.
